{"source": "BindingDB's records for doi:10.1021/bi1005283", "about": "(Merck Research Laboratories, 2010)"}
{"target": "T1, Kinesin-like protein KIF11 (Homo sapiens, UniProt P52732)", "T1 sequence (P52732 whole entry)": "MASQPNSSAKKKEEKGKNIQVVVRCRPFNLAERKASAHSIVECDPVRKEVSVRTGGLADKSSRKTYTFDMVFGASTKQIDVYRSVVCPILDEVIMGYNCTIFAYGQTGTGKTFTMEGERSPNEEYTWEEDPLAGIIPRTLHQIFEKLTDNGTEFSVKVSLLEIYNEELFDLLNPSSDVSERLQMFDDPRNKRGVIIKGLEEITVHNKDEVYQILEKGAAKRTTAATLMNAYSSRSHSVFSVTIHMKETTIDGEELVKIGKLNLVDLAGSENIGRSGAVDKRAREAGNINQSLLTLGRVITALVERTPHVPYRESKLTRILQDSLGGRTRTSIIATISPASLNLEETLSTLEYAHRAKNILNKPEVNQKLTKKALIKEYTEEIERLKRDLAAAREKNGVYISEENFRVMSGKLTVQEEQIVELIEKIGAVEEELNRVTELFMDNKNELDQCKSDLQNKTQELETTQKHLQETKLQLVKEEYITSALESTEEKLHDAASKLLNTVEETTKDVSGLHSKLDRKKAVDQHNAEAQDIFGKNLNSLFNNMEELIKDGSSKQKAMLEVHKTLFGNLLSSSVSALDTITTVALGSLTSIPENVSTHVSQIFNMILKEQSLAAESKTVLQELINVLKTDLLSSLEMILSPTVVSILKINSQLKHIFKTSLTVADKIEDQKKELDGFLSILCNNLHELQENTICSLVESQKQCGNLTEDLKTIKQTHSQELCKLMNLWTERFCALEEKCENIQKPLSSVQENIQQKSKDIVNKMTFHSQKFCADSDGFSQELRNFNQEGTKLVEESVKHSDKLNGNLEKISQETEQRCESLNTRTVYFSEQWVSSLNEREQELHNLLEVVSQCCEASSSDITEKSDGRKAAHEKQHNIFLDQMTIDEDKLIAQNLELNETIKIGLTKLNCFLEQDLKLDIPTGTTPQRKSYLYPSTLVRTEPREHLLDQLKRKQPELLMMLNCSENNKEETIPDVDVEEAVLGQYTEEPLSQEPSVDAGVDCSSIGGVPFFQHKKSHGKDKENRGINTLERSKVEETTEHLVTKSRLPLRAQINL", "assay": "Binding Assay", "description": "Binding assay using temperature-dependent circular dichroism (TdCD). In TdCD, the loss of protein secondary structure was monitored as a function of temperature. Proteins bound with ligand become more resistant to thermal unfolding compared to the unliganded protein because of the additional stabilization interactions created between the ligand and protein.", "units": {"Kd": "nM"}}
{"smiles": "COc1ccc(Nc2nc3cc(C(=O)O)ccc3n2Cc2ccccc2C(F)(F)F)cc1", "Kd": 1200}
{"smiles": "CSc1ccc(Nc2nc3cc(C(N)=O)ccc3n2Cc2ccccc2C(F)(F)F)cc1", "note": "[KSP Inhibitor, 4a]", "Kd": 2000}
{"smiles": "CS(=O)(=O)c1ccc(Nc2nc3cc(C(N)=O)ccc3n2Cc2ccccc2C(F)(F)F)cc1", "note": "[KSP Inhibitor, 4b]", "Kd": 2500}
{"smiles": "O=C(O)c1ccc2c(c1)nc(Nc1ccc(OCc3ccccc3)cc1)n2Cc1ccccc1C(F)(F)F", "note": "[KSP Inhibitor, 4c]", "Kd": 14000}
{"smiles": "COc1ccc(Nc2nc3cc(C(=O)O)ccc3n2Cc2ccccc2OC)cc1", "note": "[KSP Inhibitor, 4d]", "Kd": 5000}
{"smiles": "NC(=O)c1ccc2c(c1)nc(Nc1ccc(S(N)(=O)=O)cc1)n2Cc1ccccc1C(F)(F)F", "note": "[KSP Inhibitor, 4e]", "Kd": 600}
{"smiles": "COc1ccc(Nc2nc3cc(C(=O)O)ccc3n2Cc2ccccc2OC(F)(F)F)cc1", "note": "[KSP Inhibitor, 4g]", "Kd": 3400}
